Patent US20230398243A1, “THERAPEUTIC, RADIOLABELED NANOPARTICLES AND METHODS OF USE THEREOF” (The General Hospital Corporation, priority 2020, published 2023)

System: MDA-MB-231-luc-D3H2LN cell line
Assay: tumor cell apoptosis, proliferation, invasion, migration and cell cycle
Assay type: cell-based, human
Details: low-dose doxorubicin
Text: 21.6±0.5-nm dextran coated magnetic nanoparticles were conjugated to 8±0.7 LNA antagomirs targeting miRNA-10b, (Exiqon, Woburn, MA) (FIG. 1A). The MN-anti-miR10b therapeutic was functional in the human lymph-node metastatic MDA-MB-231-luc-D3H2LN cell line (Perkin Elmer, Hopkinton MA). […] In order to assess the therapeutic potential of this methodology, the effect of miR-10b inhibition on tumor cell apoptosis, proliferation, invasion and migration was investigated.
It was also hypothesized that by co-administering a low dose of a cytotoxic chemotherapeutic (e.g., doxorubicin), the effectiveness of the therapeutic could be amplified, leading not only to inhibition of tumor growth, but regression and, possibly, elimination of metastasis. […] Further proof for this hypothesis came from experiments in which we attempted to generate a miR-10b knock-out subline derived from the MDA-MB-231-luc-D3H2LN cell line (FIG. 3A). We observed that within 24 h of transfection with the knock-out vector set (TALEN5 L+R), the cells acquired a spindle-shaped conformation and began to detach. By 72 h of transfection, there were no viable cells (FIG. 3B).

COc1cccc2c1C(=O)c1c(O)c3c(c(O)c1C2=O)C[C@@](O)(C(=O)CO)C[C@@H]3O[C@H]1C[C@H](N)[C@H](O)[C@H](C)O1 [doxorubicin]
effect on the cell cycle (flow cytometry): induced polyploidy and G2/M arrest
